Reference: paper PMC6934184, “Selective DNA-PKcs inhibition extends the therapeutic index of localized radiotherapy and chemotherapy” (The Journal of Clinical Investigation, 2019)

Target: T1, MAPK14 (p38 alpha) (Homo sapiens, UniProt Q16539)
T1 construct: purchased Thermo Fisher Scientific (Life Technologies) SelectScreen
Test: SelectScreen Z'LYTE
Format: biochemical
Outline: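 NU5455 was profiled across the SelectScreen Broad panel of kinase activity and binding assays. Z'LYTE reactions such as CSF1R ran at apparent Km ATP, while the Adapta CAMK1 assay used ATP listed as 10. Values are given as percent.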

T1 sequence (Q16539 whole entry): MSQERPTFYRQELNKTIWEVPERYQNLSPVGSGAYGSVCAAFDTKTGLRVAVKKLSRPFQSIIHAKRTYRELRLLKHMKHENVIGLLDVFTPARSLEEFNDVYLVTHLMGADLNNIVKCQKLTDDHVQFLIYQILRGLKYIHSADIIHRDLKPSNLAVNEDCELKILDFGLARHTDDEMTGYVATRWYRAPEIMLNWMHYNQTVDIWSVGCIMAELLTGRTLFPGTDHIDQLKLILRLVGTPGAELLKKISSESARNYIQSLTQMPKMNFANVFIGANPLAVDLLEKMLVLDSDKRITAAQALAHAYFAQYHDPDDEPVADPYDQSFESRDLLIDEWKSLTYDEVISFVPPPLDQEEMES

Compound CN(C(=O)CN1CCOCC1)c1ccc2sc3c(-c4cccc5c(=O)cc(N6CC7CCC(C6)O7)oc45)cccc3c2c1 [NU5455] has an inhibition at 1 µM of 9.7%.
